Laboratory results from patent publication US20020055488A1, “Prevention and treatment of streptococcal and staphylococcal infection” (priority 2000, published 2002).

How the values were obtained:
[1] = system: Group A streptococcus (GAS); experiment: GAS attachment to murine keratinocyte cell line PAM2.12 with exogenous hyaluronic acid; format: cell-based, Streptococcus pyogenes; conditions: for inhibition of GAS attachment to PAM2.12 keratinocytes: polysaccharide added together with GAS, 45 minutes incubation
Protocol: For bacterial adherence assays, keratinocytes were seeded at 10^5 cells per well in collagen-coated tissue culture wells (Nalge Nunc International, Naperville, Ill.), incubated for 3 days at 34° C. in 8% CO2, washed, and overlaid with medium containing 10^6 CFU of GAS per well. After incubation for 1 hour at 34° C. in 8% CO2 the keratinocyte monolayers were washed twice to remove nonadherent bacteria, then the number of cell-associated bacteria was determined by quantitative culture after releasing the keratinocytes with trypsin and lysing them in sterile water, experiments testing the effects of exogenous hyaluronic acid on GAS adherence were performed using the mouse keratinocyte cell line, PAM 2.12 (Song, I. S. 2000, Exp. Dermatol. 9:42-52). Cells were seeded in collagen-coated tissue culture wells at 10^5 cells per well, cultured for 3 days at 37° C. in 5% CO2, then inoculated with 10^6 CFU of GAS per well in medium containing exogenous hyaluronic acid (from rooster comb, Sigma Chemicals, St. Louis, Mo.), no inhibitor, or a control polysaccharide, alginic acid, a high-molecular-weight polymer of mannuronic acid and guluronic acid (Protonal Durvillea Alginate, Pronova. Biopolymer, Inc., Portsmouth, N.H.). Cells were incubated for 45 minutes at 37° C. in 5% CO2, then processed for enumeration of adherent bacteria as described above. In experiments to test whether exogenous hyaluronic acid could promote dissociation of GAS attached to keratinocytes, GAS were allowed to attach to keratinocytes in the absence of inhibitor; […], no inhibitor, or alginic acid. After 45 minutes of incubation, the number of adherent bacteria was enumerated as described above.
To investigate the specificity of the interaction between the GAS capsule and CD44 on epithelial cells, the ability of exogenous hyaluronic acid to compete with GAS for binding to murine keratinocytes was examined. Addition of exogenous hyaluronic acid inhibited GAS attachment to the murine keratinocyte cell line PAM2.12 by >95% (P<0.03, FIG. 5). Alginic acid, another high molecular weight acidic polysaccharide, had no effect, supporting the hypothesis that adherence depends on a specific interaction between the GAS hyaluronic acid capsule and CD44.

[2] = system: Group A streptococcus (GAS); experiment: GAS pharyngeal colonization in mice after intranasal pretreatment with hyaluronic acid; format: in vivo, Streptococcus pyogenes; conditions: intranasal 20 μl of 1 mg/ml, 5 hours prior to GAS inoculation, compared to PBS or alginic acid pretreated, 3 days
Protocol: For pharyngeal colonization experiments, 4 to 6 week-old female mice were anesthetized by inhalation of methoxyflurane, then inoculated intranasally with approximately 5×10^6 CFU of GAS in 20 μl phosphate-buffered saline, pH 7.4. Throat swabs were collected from anesthetized mice daily and were plated on Todd-Hewitt-blood agar containing streptomycin 500 μg/ml to inhibit growth of normal flora. For some experiments, the bacterial inoculum was suspended in phosphate-buffered saline containing 50μg of mAb, either KM81, a rat anti-mouse CD44 mAb (Miyake, K. 1990, J. Exp. Med. 171:477-488), or 4H1, an isotype-matched control monoclonal antibody directed to Pseudomonas aeruginosa lipopolysaccharide (donated by Michael Preston, Brigham and Women's Hospital, Boston, Mass.). Both antibodies were purified by protein G affinity chromatography (GammaBind Plus Sepharose, Amersham Pharmacia Biotech, Piscataway, N.J.) prior to use.
Differences in attachment of GAS to keratinocytes were evaluated Using the Mann Whitney U test (Instat version 1.12, GraphPad Software, Inc. San Diego, Calif.). Repeated measures logistic regression was used to test for the effect of anti-CD44 mAb or erogenous hyaluronic acid treatment on the proportion of mice with positive throat cultures over three days of observation (Zeger, S. L. et al. 1986, Biometrics. 42:121-130). […]

[3] = system: Group A Streptococcus (GAS, strain 950771); experiment: Bacterial binding to human keratinocyte monolayers after pre-incubation, GAS; format: cell-based, Streptococcus pyogenes; conditions: 10 bacteria per keratinocyte, 1 hour, alginate control
Protocol: (§1) Keratinocyte monolayers were pre-incubated with alginate (AL, solid bars) or hyaluronic cid (HA, hatched bars) prior to surface inoculation with either Group A Streptococcus (GAS, strain 950771), Group B Streptococcus (GBS, strain 515), Streptococcus pneumoniae (S. pneumo, type 6), or Staphylococcus aureus (S. aureus, type 8) at a multiplicity of infection of 10 bacteria per keratinocyte for 1 hour.

[4] = system: Group B Streptococcus (GBS, strain 515); experiment: Bacterial binding to human keratinocyte monolayers after pre-incubation, GBS; format: cell-based; conditions: 10 bacteria per keratinocyte, 1 hour, alginate control
Protocol: as §1

[5] = system: Streptococcus pneumoniae (S. pneumo, type 6); experiment: Bacterial binding to human keratinocyte monolayers after pre-incubation, S. pneumoniae; format: cell-based; conditions: 10 bacteria per keratinocyte, 1 hour, alginate control
Protocol: as §1

[6] = system: Staphylococcus aureus (S. aureus, type 8); experiment: Bacterial binding to human keratinocyte monolayers after pre-incubation, S. aureus; format: cell-based; conditions: 10 bacteria per keratinocyte, 1 hour, alginate control
Protocol: as §1

| Substance | inhibition of GAS attachment to PAM2.12 keratinocytes [1] | reduction of GAS attachment to keratinocytes ([1]; addition of hyaluronic acid delayed for 2 hours) | reduction in bacterial attachment to keratinocytes ([1]; hyaluronic acid added up to 45 minutes after adding GAS) [%] | reduction of GAS pharyngeal colonization (positive throat cultures) [2] [%] | inhibition of binding of GAS to human keratinocytes [3] | inhibition of binding of GBS to human keratinocytes [4] | inhibition of binding of S. pneumoniae to human keratinocytes [5] | inhibition of binding of S. aureus to human keratinocytes [6] |
| --- | --- | --- | --- | --- | --- | --- | --- | --- |
| alginic acid | had no effect | – | – | – | – | – | – | – |
| hyaluronic acid | > 95% | 70-80% | > 90 | 60 to 80 | more than 80% | more than 80% | more than 80% | more than 80% |
